Assay [1] has as its target T1, Porcine pancreatic lipase (Sus scrofa, UniProt P00591).
T1 construct: purchased Sigma
T1 sequence (P00591 1-450): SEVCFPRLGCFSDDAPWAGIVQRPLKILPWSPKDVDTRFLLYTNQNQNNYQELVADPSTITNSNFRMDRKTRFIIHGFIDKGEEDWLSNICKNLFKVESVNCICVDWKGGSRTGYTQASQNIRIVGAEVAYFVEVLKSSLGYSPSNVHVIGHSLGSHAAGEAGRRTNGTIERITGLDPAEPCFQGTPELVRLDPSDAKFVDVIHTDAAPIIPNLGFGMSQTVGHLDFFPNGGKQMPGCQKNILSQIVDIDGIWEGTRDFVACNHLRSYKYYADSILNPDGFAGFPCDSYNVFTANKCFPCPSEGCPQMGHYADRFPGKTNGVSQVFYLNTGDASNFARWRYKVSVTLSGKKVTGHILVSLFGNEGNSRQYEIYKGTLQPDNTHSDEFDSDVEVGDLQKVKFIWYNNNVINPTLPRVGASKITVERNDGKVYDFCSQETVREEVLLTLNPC
Briefly: Test of activity of inhibiting lipase (copper oleate colorimetry, olive oil substrate). Type of assay: biochemical, pig. The conditions noted are these: final concentration of inhibitor in the system 1.85 μg/mL. As to the method:
2.1 Preparation of light absorbance working curve for fatty acid: a series of oleic acid-toluene solutions with different concentrations (0-3.5 mmol/L, separately being 0, 0.225, 0.45, 0.675, 0.9, 1.125, 1.35, 1.8, 2.25, 2.7, and 3.5 mmol/L), 4 mL of each was taken and placed in conical flask, added with 1 mL of color developing agent, stirred with magnetic force for 3 minutes, oleic acid molecules and copper ions formed a green complex compound, after centrifugation, organic phase of upper layer was taken and measured at 714 nm to determine light absorbance.
2.2 Enzyme solution was 0.5 mg/mL pancreatic lipase solution; buffer solution was 0.07M NaH2PO4—K2HPO4 phosphate buffer solution (pH 7.0); color developing agent was 5% copper acetate solution, which was regulated with pyridine to have pH 6.1.
3 mL of 0.07M phosphate buffer solution and 1 mL of olive oil were pre-heated at a constant temperature of 37° C. for 5 minutes in water bath under agitation with a magnetic stirrer, added with 1.3 mL of enzyme solution (negative control was that without enzyme inhibitor; positive control is that added with 100 μL of 0.1 mg/mL orlistat solution; […]), stirred with magnetic force for 10 minutes, immediately added with 8 mL of toluene, stirred continuously for 2 minutes, the reaction was terminated, the generated oleic acid was extracted. The solutions were transferred to centrifuge tube, centrifuged under 4000 rpm for 10 minutes, and the organic phase and water phase were layered and clarified. 4 mL of the upper layer organic phase was taken and placed in a small conical flask, added with 1 mL of color developing agent, stirred with magnetic stirrer for 3 minutes, the generated oleic acid reacted with copper ions to form green complex compound. After centrifugation under 4000 rpm for 10 minutes, the upper layer of toluene solution containing copper oleate was taken, and measured with a spectrophotometer at 714 nm to determine its light absorbance. A blank solution without lipase was prepared as control by the same method, and concentration of fatty acid could be determined by referring to light absorbance working curve of oleic acid.
Enzyme activity unit of lipase was defined as follows: an enzyme amount to release 1 μmol fatty acid under certain condition was defined as 1 unit of lipase activity (U).
The following formula was used to calculate enzyme activity: X=(cV)/(tV′)
wherein: X represents enzyme activity of lipase, U/mL; c represents concentration of fatty acid, […]; V represents volume of fatty acid solution, mL; V′ represents amount of enzyme solution, mL; t represents action time, minute. Inhibition rate=[(enzyme activity of lipase−enzyme activity of lipase after inhibition)/enzyme activity of lipase]×100%

For assay [2], the target named is T2, HMG-CoA reductase (rat liver microsomes) (Rattus norvegicus, UniProt P51639).
T2 construct: taking out liver of male rat, washing with KESD buffer solution; from tissue; host or cells: liver of male rat (microsomal fraction, glycerol/37 °C treatment, 35-50% ammonium sulfate fraction)
T2 sequence (P51639 1-887): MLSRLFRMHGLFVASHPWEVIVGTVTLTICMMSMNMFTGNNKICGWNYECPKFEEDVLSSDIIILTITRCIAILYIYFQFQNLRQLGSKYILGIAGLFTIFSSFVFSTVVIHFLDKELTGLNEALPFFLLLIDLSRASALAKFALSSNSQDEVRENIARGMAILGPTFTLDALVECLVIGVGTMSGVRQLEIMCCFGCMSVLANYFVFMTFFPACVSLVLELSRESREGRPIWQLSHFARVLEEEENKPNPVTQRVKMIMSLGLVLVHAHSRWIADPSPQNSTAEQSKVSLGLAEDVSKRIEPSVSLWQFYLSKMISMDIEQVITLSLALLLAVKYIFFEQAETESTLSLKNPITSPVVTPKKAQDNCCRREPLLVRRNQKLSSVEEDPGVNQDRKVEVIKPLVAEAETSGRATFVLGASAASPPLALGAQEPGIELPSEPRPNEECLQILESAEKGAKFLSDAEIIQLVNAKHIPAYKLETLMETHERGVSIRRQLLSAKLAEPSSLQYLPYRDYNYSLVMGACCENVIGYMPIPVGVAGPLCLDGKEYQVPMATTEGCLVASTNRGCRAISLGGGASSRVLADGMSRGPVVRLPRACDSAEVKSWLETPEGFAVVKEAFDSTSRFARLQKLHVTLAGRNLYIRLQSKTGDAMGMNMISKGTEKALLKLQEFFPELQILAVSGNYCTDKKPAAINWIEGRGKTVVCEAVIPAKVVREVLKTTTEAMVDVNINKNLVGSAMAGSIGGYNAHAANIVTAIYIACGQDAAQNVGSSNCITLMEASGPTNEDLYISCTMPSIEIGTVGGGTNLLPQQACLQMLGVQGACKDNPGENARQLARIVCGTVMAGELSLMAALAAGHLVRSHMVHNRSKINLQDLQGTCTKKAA
In words: Test of activity of inhibiting HMG-CoA reductase (rate of decline of OD340). Type of assay: biochemical. Particulars: final concentration in system 80 μg/mL. The procedure:
Rat liver microsomes (HMG-CoA reductase), could be commercially available or prepared by the following preparation method: taking out liver of male rat, washing with KESD buffer solution, centrifuging under 1200 g for 15 minutes, collecting supernatant, then centrifuging under 105,000 g twice, 90 minutes for each time, and collecting centrifugation deposit. The centrifugation deposit was added with 8.3% of glycerol, heated with 37° C. bath for 1 hour. The crude product of rat liver microsomes was purified with saturated ammonium sulfate, and 35-50% of purified fraction was collected. The purified fraction obtained could be stored in −80° C. refrigerator.
Compound of Formula II was dissolved in 75% ethanol solution, with initial concentration of 8.0 mg/mL, and diluted in gradient manner, to reach 4.0 mg/mL, 2.0 mg/mL, 1.0 mg/mL; lovastatin was used as positive control, dissolved with 75% ethanol solution to reach concentration of 2.0 mg/mL; in the test system, total volume was 250 μL, concentrations of ingredients were separately: potassium chloride 200 mM, potassium dihydrogen phosphate 160 mM, ethylenediamine tetraacetic acid 4 mM, dithiothreitol 10 mM, […] and 3-hydroxy-3-methylglutary coenzyme A as two substrates separately had concentrations of: 200 μM and 50 μM, pH6.8, 30 μL of enzyme was added, 4 test groups were separately added with 10 μL of new compound solutions with different concentrations, the positive control group was added with 10 μL of lovastatin solution, the blank control group was added with 10 μL of 75% ethanol solution, and dynamitic changes of OD340 were detected with Versamax ELISA at 37° C. condition. The rate of decline of OD340 (expressed in slope value) as detected within 5 minutes was used to evaluate the activity of HMG-CoA reductase, and then to evaluate the activity of enzyme inhibitor and the results were shown in Table 2.

`CCCCCCCCCCC[C@@H](C[C@@H]1OC(=O)[C@H]1CCCCCC)OC(=O)[C@H](CC(C)C)NC=O` [Orlistat, orlistat, reference compound]: the Absorbance in assay [1] (714 nm, blank control 0.6680) worked out at 0.2042. The compound further had an Inhibition rate in assay [1] of 69.84%. In assay [1] (blank control 1.69), this compound registered an Enzyme activity of 0.50 U/mL. Further, in assay [1] (blank control 2.75), the “Concentration of generated oleic acid” value was 0.81 mM.
On to `CC[C@H](C)C(=O)O[C@H]1C[C@@H](C)C=C2C=C[C@H](C)[C@H](CC[C@@H]3C[C@@H](O)CC(=O)O3)[C@H]21` [Lovastatin, lovastatin, reference compound], for which, in assay [2], the Inhibition rate is listed as 54.4%. Further, the “Slope (rate of decline of OD340)” value in assay [2] (blank control slope 16.0) was 7.3.

The record behind these values is patent US11845774B2, “Sterol derivatives and preparation method and uses thereof” (BEIJING PEKING UNIVERSITY WBL BIOTECH CO., LTD., priority 2011, dated 2023).
